From US6492174B1, “Methods of initiating embryogenic cultures in plants” (Institute of Paper Science & Technology, priority 2000, dated 2002)

Legend:
Assay type in all cases: cell-based
[1] = test system: Douglas fir stage 3-5 zygotic embryos attached to megagametophytes; test: Douglas fir initiation on solid media #121 with brassinolide, ABA, ABA pre-soak or elevated pressure
Text: The explants used in this experiment were isolated from Douglas fir cones collected in mid-summer from four open-pollinated trees, representing a multiplicity of genotypes. Explants were stage 3-5 (early-midstage) zygotic embryos attached to megagametophytes, prepared as described in Example 2. The embryo and attached megagametophyte were then placed next to each other on the treatment media. As in Example 2, each replication consisted of ten explants in a single petri dish. Each treatment contained four replications per treatment, per genotype.
The treatment media were based on solid media #121, the composition of which is described in Table 5. Media #121 contains no ABA or brassinolide. Treatment #1, the control, consisted of explants cultured on media #121 alone. In Treatment #2, explants were cultured on media #121 containing 0.1 μM brassinolide. In Treatment #3, explants were cultured on media #121 containing 1 ppm ABA. In treatment #4, explants were soaked in liquid media containing 5 ppm ABA for 30 minutes prior to being placed on #121 media. In Treatment #5, explants were cultured on media #121 under 1.5 atmospheres of pressure. The petri dishes were wrapped in PARAFILM and incubated at 23-24° C. in the dark.

[2] = test system: Norway spruce zygotic embryos; test: Norway spruce initiation on solid media #56 with ABA, brassinolide or elevated pressure, ten weeks
Procedure: Explants were zygotic embryos flipped out of the megagametophyte, prepared as in Example 1. The experiment consisted of five replications, with a replication consisting of ten explants in a single petri dish. Explants were cultured on solid media #56 (Table 3). Treatment #1 consisted of explants on media #56. In Treatment #2, the medium additionally contained 1 ppm ABA. In Treatment #3, the media contained […] brassinolide. In Treatment #4, the explants were cultured under 1.5 atmospheres of pressure. After ten weeks, the explants were examined and the frequency of embryogenic culture initiation was scored (Table 43).

[3] = test system: Loblolly pine megagametophytes; test: Elevated pressure in combination with brassinolide, ABA pre-soak or liquid media #1038, 8 weeks; details: for % Megagametophytes Extruding / % Megagametophytes Initiating: Br 0.1 μM in media #1042, ABA soak 5 ppm 30 minute
Procedure: The previous examples indicate that elevated pressure can enhance extrusion and initiation. This experiment was designed to test the effect of elevated pressure in combination with other treatments to determine the optimal conditions for promoting extrusion and initiation.
Megagametophytes in some treatments received a 30 minute pre-culturing soak in liquid media (#1042 minus the gelling agent) containing 5 ppm ABA. Megagametophytes in Treatments 9 and 10 were fully immersed in liquid media #1038. The experiment consisted of three replications per treatment, per genotype.
Five different treatments were used, each cultured under 1.0 or 1.5 atmospheres for a total of ten treatments (See Table 33).
After 8 weeks culturing, the treatments were scored. Extrusion and initiation were increased by elevated pressure in all treatments.

[4] = test system: Loblolly pine megagametophytes; test: 30 minute abscisic acid soaking pre-treatment, culture on solid media #1042 with or without 0.1 μM brassinolide, eight weeks
Procedure: In this experiment, the effects of ovule pre-treatment by soaking with abscisic acid solutions of varying concentration was investigated. The abscisic acid treatment was tested on two media, one containing brassinolide and one lacking in brassinolide. The explants were megagametophytes from open pollinated summer cones of four individual trees, representing a multiplicity of genotypes. The seeds contained Stage 2-4 zygotic embryos. Megagametophytes were excised from sterilized seeds, as described in Example 4.
Prior to culturing, the megagametophytes were soaked for 30 minutes in liquid growth media (media #1042, Table 47, minus the gelling agent) containing 0, 5, 10 and 20 ppm abscisic acid. After soaking, the megagametophytes were placed on either one of two solid growth media. While still liquid, 2 ml media was poured into wells on a culture well plate and allowed to solidify. Half the soaked megagametophytes were placed on solid media #1042 (Table 47) and half were placed on solid media #1042 with 0.1 μM brassinolide added.
On solid media where brassinolide was present, there was a dramatic difference in extrusion and initiation between megagametophytes soaked in zero and 5 ppm ABA solutions (Treatments #5 and #6) compared to those soaked in 10 and 20 ppm ABA solutions (Treatments #7 and #8). […] In contrast, megagametophytes treated with higher amounts of ABA in Treatments 7 and 8 had the highest initiation frequencies of any treatment. […] Alternatively, there may have been an interaction between brassinolide and ABA such that low ABA plus brassinolide inhibits extrusion, with this inhibition overcome when ABA concentration is higher.

[5] = genotype 7-100, + Pressure 1.5 atm
[6] = genotype 11-1095, + Pressure 1.5 atm
[7] = genotype 21-6, + Pressure 1.5 atm
[8] = genotype 7-1051, 5 ppm ABA/No Br
[9] = genotype 7-1051, 10 ppm ABA/No Br
[10] = genotype 7-1051, 20 ppm ABA/No Br
[11] = genotype M7-56, 5 ppm ABA/No Br
[12] = genotype M7-56, 10 ppm ABA/No Br
[13] = genotype M7-56, 20 ppm ABA/No Br
[14] = genotype TC5-1501, 5 ppm ABA/No Br
[15] = genotype TC5-1501, 10 ppm ABA/No Br
[16] = genotype TC5-1501, 20 ppm ABA/No Br
[17] = genotype TC11-109, 5 ppm ABA/No Br
[18] = genotype TC11-109, 10 ppm ABA/No Br
[19] = genotype TC11-109, 20 ppm ABA/No Br
[20] = genotype 7-1051, 0 ppm ABA/ +Br (0.10 μM)
[21] = genotype M7-56, 0 ppm ABA/ +Br (0.10 μM)
[22] = genotype TC5-1501, 0 ppm ABA/ +Br (0.10 μM)
[23] = genotype TC11-109, 0 ppm ABA/ +Br (0.10 μM)
[24] = total, 0 ppm ABA/ +Br (0.10 μM)

## CC1=CC(=O)CC(C)(C)C1(O)/C=C/C(C)=C\C(=O)O (stereo not shown) [ABA, 5-(1-hydroxy-2,6,6,-trimethyl-4-oxo-2-cyclohexen-1-yl)-3-methyl-2,4-penta dienoic acid]
[1]; genotype T0232l, +1 ppm ABA in media #121
  % of Megagametophytes Initiating - Mean: 21.1%
[1]; genotype T0232l, ABA pre-soak (5 ppm, 30 minutes)
  % of Megagametophytes Initiating - Mean: 27.6%
[1]; genotype T0235l, +1 ppm ABA in media #121
  % of Megagametophytes Initiating - Mean: 10.5%
[1]; genotype T0235l, ABA pre-soak (5 ppm, 30 minutes)
  % of Megagametophytes Initiating - Mean: 25.0%
[1]; genotype T0293l, +1 ppm ABA in media #121
  % of Megagametophytes Initiating - Mean: 34.6%
[1]; genotype T0293l, ABA pre-soak (5 ppm, 30 minutes)
  % of Megagametophytes Initiating - Mean: 26.9%
[1]; genotype T0525l, +1 ppm ABA in media #121
  % of Megagametophytes Initiating - Mean: 10.0%
[1]; genotype T0525l, ABA pre-soak (5 ppm, 30 minutes)
  % of Megagametophytes Initiating - Mean: 20.0%
[1]; total, +1 ppm ABA in media #121
  % of Megagametophytes Initiating - Mean: 19.1%
[1]; total, ABA pre-soak (5 ppm, 30 minutes)
  % of Megagametophytes Initiating - Mean: 24.6%
[2]; 1 ppm ABA added to medium #56
  % Initiating (std. error): 47.4 (5.5) %
[3]; Total, 1.0 atm
  % Megagametophytes Extruding: 38.4%
  % Megagametophytes Initiating: 21.5%
[3]; Total, + Pressure 1.5 atm
  % Megagametophytes Extruding: 46.7%
  % Megagametophytes Initiating: 24.4%
[3]; genotype 7-100, 1.0 atm
  % Megagametophytes Extruding: 10.0 (5.8) %
  % Megagametophytes Initiating: 3.3 (3.3) %
[3]; [5]
  % Megagametophytes Extruding: 23.3 (13.3) %
  % Megagametophytes Initiating: 3.3 (3.3) %
[3]; genotype 11-1095, 1.0 atm
  % Megagametophytes Extruding: 50.0 (0.0) %
  % Megagametophytes Initiating: 23.3 (6.7) %
[3]; [6]
  % Megagametophytes Extruding: 50.0 (5.8) %
  % Megagametophytes Initiating: 20.0 (5.8) %
[3]; genotype 21-6, 1.0 atm
  % Megagametophytes Extruding: 55.2 (8.7) %
  % Megagametophytes Initiating: 37.8 (11.8) %
[3]; [7]
  % Megagametophytes Extruding: 66.7 (8.8) %
  % Megagametophytes Initiating: 50.0 (11.5) %
[4]; [8]
  % Megagametophytes Extruding: 53.3 (8.8) %
  Embryogenic Culture Initiation - % Megagametophytes Extruding: 20.0 (10.0) %
[4]; [9]
  % Megagametophytes Extruding: 30.0 (5.8) %
  Embryogenic Culture Initiation - % Megagametophytes Extruding: 6.7 (3.3) %
[4]; [10]
  % Megagametophytes Extruding: 40.0 (5.8) %
  Embryogenic Culture Initiation - % Megagametophytes Extruding: 13.3 (3.3) %
[4]; [11]
  % Megagametophytes Extruding: 20.0 (5.8) %
  Embryogenic Culture Initiation - % Megagametophytes Extruding: 13.3 (3.3) %
[4]; [12]
  % Megagametophytes Extruding: 26.7 (6.7) %
  Embryogenic Culture Initiation - % Megagametophytes Extruding: 13.3 (3.3) %
[4]; [13]
  % Megagametophytes Extruding: 36.7 (8.8) %
  Embryogenic Culture Initiation - % Megagametophytes Extruding: 6.7 (6.7) %
[4]; [14]
  % Megagametophytes Extruding: 33.3 (6.7) %
  Embryogenic Culture Initiation - % Megagametophytes Extruding: 10.0 (0.0) %
[4]; [15]
  % Megagametophytes Extruding: 16.7 (8.8) %
  Embryogenic Culture Initiation - % Megagametophytes Extruding: 3.3 (3.3) %
[4]; [16]
  % Megagametophytes Extruding: 40.0 (11.5) %
  Embryogenic Culture Initiation - % Megagametophytes Extruding: 6.7 (3.3) %
[4]; [17]
  % Megagametophytes Extruding: 33.3 (3.3) %
  Embryogenic Culture Initiation - % Megagametophytes Extruding: 10.0 (5.8) %
[4]; [18]
  % Megagametophytes Extruding: 46.7 (13.3) %
  Embryogenic Culture Initiation - % Megagametophytes Extruding: 13.3 (3.3) %
[4]; [19]
  % Megagametophytes Extruding: 46.7 (12.0) %
  Embryogenic Culture Initiation - % Megagametophytes Extruding: 13.3 (3.3) %
[4]; soaking pretreatment, media where no brassinolide was present (Treatments #1-4)
  promotion of extrusion or initiation: did not promote extrusion or initiation
[4]; total, 5 ppm ABA/No Br
  % Megagametophytes Extruding: 35.0%
  Embryogenic Culture Initiation - % Megagametophytes Extruding: 13.3%
[4]; total, 10 ppm ABA/No Br
  % Megagametophytes Extruding: 30.0%
  Embryogenic Culture Initiation - % Megagametophytes Extruding: 9.2%
[4]; total, 20 ppm ABA/No Br
  % Megagametophytes Extruding: 40.9%
  Embryogenic Culture Initiation - % Megagametophytes Extruding: 10.0%

## CC(C)[C@H](C)[C@@H](O)[C@H](O)[C@@H](C)[C@H]1CC[C@H]2[C@@H]3COC(=O)[C@H]4C[C@H](O)[C@H](O)C[C@]4(C)[C@H]3CC[C@]12C [brassinolide]
[1]; genotype T0232l, +0.1 μM Br in media #121
  % of Megagametophytes Initiating - Mean: 27.8%
[1]; genotype T0235l, +0.1 μM Br in media #121
  % of Megagametophytes Initiating - Mean: 21.8%
[1]; genotype T0293l, +0.1 μM Br in media #121
  % of Megagametophytes Initiating - Mean: 34.6%
[1]; genotype T0525l, +0.1 μM Br in media #121
  % of Megagametophytes Initiating - Mean: 30.0%
[1]; total, +0.1 μM Br in media #121
  % of Megagametophytes Initiating - Mean: 31.1%
[2]; 0.1 pM brassinolide added to medium #56
  % Initiating (std. error): 46.2 (6.1) %
[3]; Total, 1.0 atm
  % Megagametophytes Extruding: 32.2%
  % Megagametophytes Initiating: 24.2%
[3]; Total, + Pressure 1.5 atm
  % Megagametophytes Extruding: 55.9%
  % Megagametophytes Initiating: 38.7%
[3]; Treatment #4 vs. #3
  increase of initiation frequency by pressure: over 60%
[3]; genotype 7-100, 1.0 atm
  % Megagametophytes Extruding: 3.3 (3.3) %
  % Megagametophytes Initiating: 0.0 (0.0) %
[3]; [5]
  % Megagametophytes Extruding: 43.3 (8.8) %
  % Megagametophytes Initiating: 20.0 (5.8) %
[3]; genotype 11-1095, 1.0 atm
  % Megagametophytes Extruding: 56.7 (6.7) %
  % Megagametophytes Initiating: 39.2 (11.6) %
[3]; [6]
  % Megagametophytes Extruding: 50.0 (21.7) %
  % Megagametophytes Initiating: 39.2 (18.6) %
[3]; genotype 21-6, 1.0 atm
  % Megagametophytes Extruding: 36.7 (6.7) %
  % Megagametophytes Initiating: 33.3 (8.8) %
[3]; [7]
  % Megagametophytes Extruding: 74.4 (12.4) %
  % Megagametophytes Initiating: 56.9 (13.7) %
[4]; [20]
  % Megagametophytes Extruding: 13.3 (6.7) %
  Embryogenic Culture Initiation - % Megagametophytes Extruding: 0.0 (0.0) %
[4]; [21]
  % Megagametophytes Extruding: 3.3 (3.3) %
  Embryogenic Culture Initiation - % Megagametophytes Extruding: 0.0 (0.0) %
[4]; [22]
  % Megagametophytes Extruding: 0.0 (0.0) %
  Embryogenic Culture Initiation - % Megagametophytes Extruding: 0.0 (0.0) %
[4]; [23]
  % Megagametophytes Extruding: 0.0 (0.0) %
  Embryogenic Culture Initiation - % Megagametophytes Extruding: 0.0 (0.0) %
[4]; [24]
  % Megagametophytes Extruding: 4.2%
  Embryogenic Culture Initiation - % Megagametophytes Extruding: 0%
